Reference: patent US11730720B2, “ALK5 inhibitors” (THERAVANCE BIOPHARMA R&D IP, LLC, priority 2018, dated 2023)

Tests used:
[1] = test system: TGF-β-stimulated SMAD3 phosphorylation in BEAS-2B cells; assay: Cellular ALK5 potency assay, inhibition of TGF-β stimulated pSMAD3 formation in BEAS-2B cells; assay type: cell-based; details: Homo sapiens, inhibition of TGF-β (10 ng/mL) stimulated pSMAD3 formation, 1 hour compound incubation, read-out: BEAS2B pIC50 (converted)
Method in brief: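 Phospho-SMAD3 was quantified by AlphaLISA in lysates of human lung epithelial BEAS-2B cells. Compound was added 1 h (37 °C, HEPES/BSA-supplemented HBSS) before a 30 min challenge with 10 ng/mL TGF-β. Values are pIC50 relative to stimulated cells without compound.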

[2] = molecular target: T1, recombinant human ALK5 (TGF-βR1) protein (Homo sapiens, UniProt P36897); assay: Biochemical ALK5 (TGF-βR1) assay to measure pKi (LANCE Ultra ULight kinase assay); details: apparent pKi, converted from pIC50 using the Cheng-Prusoff equation
T1 construct: purchased Life Technologies PR9075A
T1 sequence (P36897 34-503): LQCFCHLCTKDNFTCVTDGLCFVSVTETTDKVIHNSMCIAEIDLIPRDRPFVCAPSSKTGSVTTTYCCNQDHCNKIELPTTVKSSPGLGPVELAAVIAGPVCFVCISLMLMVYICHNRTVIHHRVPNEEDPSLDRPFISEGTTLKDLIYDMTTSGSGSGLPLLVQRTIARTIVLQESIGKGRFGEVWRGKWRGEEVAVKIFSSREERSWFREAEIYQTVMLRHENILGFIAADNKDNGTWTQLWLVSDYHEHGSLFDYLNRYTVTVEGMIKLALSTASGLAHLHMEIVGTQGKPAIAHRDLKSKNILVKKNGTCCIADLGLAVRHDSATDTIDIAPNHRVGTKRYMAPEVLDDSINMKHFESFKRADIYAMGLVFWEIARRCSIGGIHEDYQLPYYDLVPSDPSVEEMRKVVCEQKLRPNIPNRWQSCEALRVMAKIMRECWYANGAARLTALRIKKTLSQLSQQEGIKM
Method in brief: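 TR-FRET kinase format: compound dose range 10 μM–25 pM equilibrated 60 min with human ALK5 and ULight-labelled topoisomerase 2α peptide in HEPES/MgCl2 buffer pH 7.5 with DTT. Reaction started with ATP (125 μM stock, 5× final), 60 min at 37° C, stopped with EDTA/Eu-anti-phospho antibody; pKi derived from pIC50 via Cheng-Prusoff.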

Row | Structure (SMILES) | IC50 [1] | Ki [2]
1 | COCc1cccc(-c2n[nH]cc2-c2ccc3ncc(N4CCC(N)C4)cc3n2)c1 (stereo not drawn) [Compound 14-6, 1-[6-[3-[3-(methoxymethyl)phenyl]-1H-pyrazol-4-yl]-1,5-naphthyridin-3-yl]pyrrolidin-3-amine] | 25.1 to 158 nM | 0.398 to 3.16 nM
2 | O=C(OCc1ccccc1)N1CCC2(CCN(c3cnc4ccc(-c5c[nH]nc5-c5cc(Cl)ccc5F)nc4c3)C2)C1 (stereo not drawn) [Compound 1-35, benzyl 7-[6-[3-(5-chloro-2-fluoro-phenyl)-1H-pyrazol-4-yl]-1,5-naphthyridin-3-yl]-2,7-diazaspiro[4.4]nonane-2-carboxylate] | 200 to 1260 nM | 3.98 to 31.6 nM
3 | NC1CC=C(c2cnc3ccc(-c4c[nH]nc4-c4cc(Cl)ccc4F)nc3c2)CC1 (stereo not drawn) [Compound 1-91, 4-(6-(3-(5-chloro-2-fluorophenyl)-1H-pyrazol-4-yl)-1,5-naphthyridin-3-yl)cyclohex-3-en-1-amine] | ≤ 20 nM | 0.0398 to 0.316 nM
4 | CN(C)C1CCN(c2cnc3ccc(-c4c[nH]nc4-c4cc(Cl)c(F)cc4F)nc3c2)CC1 [Compound 6-18, 1-[6-[3-(5-chloro-2,4-difluoro-phenyl)-1H-pyrazol-4-yl]-1,5-naphthyridin-3-yl]-N,N-dimethyl-piperidin-4-amine] | 25.1 to 158 nM | 0.0398 to 0.316 nM
5 | CNC(=O)[C@@H]1CN(c2cnc3ccc(-c4c[nH]nc4-c4cc(Cl)ccc4F)nc3c2)CCN1 [Compound 1-58, (2S)-4-[6-[3-(5-chloro-2-fluoro-phenyl)-1H-pyrazol-4-yl]-1,5-naphthyridin-3-yl]-N-methyl-piperazine-2-carboxamide] | 25.1 to 158 nM | 0.0398 to 0.316 nM
6 | CN(C)C1(C)CN(c2cnc3ccc(-c4c[nH]nc4-c4cc(Cl)ccc4F)nc3c2)C1 [Compound 1-33, 1-[6-[3-(5-chloro-2-fluoro-phenyl)-1H-pyrazol-4-yl]-1,5-naphthyridin-3-yl]-N,N,3-trimethyl-azetidin-3-amine] | 25.1 to 158 nM | 0.398 to 3.16 nM
7 | Fc1ccc(Cl)cc1-c1[nH]cnc1-c1ccc2ncc(-c3cc4n(n3)CCNC4)cc2c1 [Compound 17-11, 6-[5-(5-chloro-2-fluoro-phenyl)-1H-imidazol-4-yl]-3-(4,5,6,7-tetrahydropyrazolo[1,5-a]pyrazin-2-yl)quinoline] | ≤ 20 nM | 0.0398 to 0.316 nM
8 | CN(CC1CNC1)c1cnc2ccc(-c3nc[nH]c3-c3cc(Cl)c(F)cc3F)nc2c1 [Compound 7-6, N-(azetidin-3-ylmethyl)-6-[5-(5-chloro-2,4-difluoro-phenyl)-1H-imidazol-4-yl]-N-methyl-1,5-naphthyridin-3-amine] | 25.1 to 158 nM | 0.0398 to 0.316 nM
9 | Fc1ccc(Cl)cc1-c1nc2ccccn2c1-c1ccc2ncc(-c3nnn4c3CNCC4)cc2n1 [Compound 3-6, 2-(2-(5-chloro-2-fluorophenyl)imidazo[1,2-a]pyridin-3-yl)-7-(4,5,6,7-tetrahydro-[1,2,3]triazolo[1,5-a]pyrazin-3-yl)-1,5-naphthyridine] | 25.1 to 158 nM | 0.0398 to 0.316 nM
10 | Fc1ccc(Cl)cc1-c1n[nH]cc1-c1ccc2ncc(C3CCNC3)cc2n1 (stereo not drawn) [Compound 1-99, 2-[3-(5-chloro-2-fluoro-phenyl)-1H-pyrazol-4-yl]-7-pyrrolidin-3-yl-1,5-naphthyridine] | 200 to 1260 nM | 3.98 to 31.6 nM
11 | CC(C)NC(=O)[C@H]1CN(c2cnc3ccc(-c4c[nH]nc4-c4cc(Cl)ccc4F)nc3c2)CCN1 [Compound 1-66, (R)-4-(6-(3-(5-Chloro-2-fluorophenyl)-1H-pyrazol-4-yl)-1,5-naphthyridin-3-yl)-N-isopropylpiperazine-2-carboxamide] | 25.1 to 158 nM | 0.398 to 3.16 nM
12 | Fc1cc(F)c(-c2n[nH]cc2-c2ccc3ncc(-c4cnn5c4CNCC5)cc3n2)cc1Cl [Compound 6-45, 2-(3-(5-chloro-2,4-difluorophenyl)-1H-pyrazol-4-yl)-7-(4,5,6,7-tetrahydropyrazolo[1,5-a]pyrazin-3-yl)-1,5-naphthyridine] | 25.1 to 158 nM | 0.0398 to 0.316 nM
13 | CN(CCN1CCNCC1)c1cnc2ccc(-c3c[nH]nc3-c3cc(Cl)c(F)cc3F)nc2c1 [Compound 6-24, 6-[3-(5-chloro-2,4-difluoro-phenyl)-1H-pyrazol-4-yl]-N-methyl-N-(2-piperazin-1-ylethyl)-1,5-naphthyridin-3-amine] | 25.1 to 158 nM | 0.398 to 3.16 nM
14 | O=C(O)[C@H]1CN(c2cnc3ccc(-c4nc[nH]c4-c4cc(Cl)c(F)cc4F)cc3c2)CCN1 [Compound 22-6, (2R)-4-[6-[5-(5-chloro-2,4-difluoro-phenyl)-1H-imidazol-4-yl]-3-quinolyl]piperazine-2-carboxylic acid] | 1580 to 10000 nM | 3.98 to 31.6 nM
15 | Fc1ccc(Cl)cc1-c1n[nH]cc1-c1ccc2ncc(-c3nc(C(F)(F)F)n4c3CNCC4)cc2n1 [Compound 1-119, 2-[3-(5-chloro-2-fluoro-phenyl)-1H-pyrazol-4-yl]-7-[3-(trifluoromethyl)-5,6,7,8-tetrahydroimidazo[1,5-a]pyrazin-1-yl]-1,5-naphthyridine] | 25.1 to 158 nM | 0.398 to 3.16 nM
16 | Fc1cc(F)c(-c2n[nH]cc2-c2ccc3ncc(N4CC5CNC5C4)cc3n2)cc1Cl (stereo not drawn) [Compound 6-33, 2-[3-(5-chloro-2,4-difluoro-phenyl)-1H-pyrazol-4-yl]-7-(3,6-diazabicyclo[3.2.0]heptan-3-yl)-1,5-naphthyridine] | 25.1 to 158 nM | 0.398 to 3.16 nM
17 | CN1CCN(C2CCN(c3cnc4ccc(-c5c[nH]nc5-c5ccc(F)c(F)c5)nc4c3)CC2)CC1 [Compound 8-3, 2-(3-(3,4-difluorophenyl)-1H-pyrazol-4-yl)-7-(4-(4-methylpiperazin-1-yl)piperidin-1-yl)-1,5-naphthyridine] | 25.1 to 158 nM | 0.398 to 3.16 nM
18 | Fc1ccc(Cl)cc1-c1[nH]cnc1-c1ccc2ncc(N3CCNCC3)cc2n1 [Compound 2-8, 2-[5-(5-chloro-2-fluoro-phenyl)-1H-imidazol-4-yl]-7-piperazin-1-yl-1,5-naphthyridine] | ≤ 20 nM | 0.0398 to 0.316 nM
19 | CC(C)N1CCN(CCNc2cnc3ccc(-c4nc[nH]c4-c4cc(Cl)c(F)cc4F)cc3c2)CC1 [Compound 22-4, 6-(5-(5-chloro-2,4-difluorophenyl)-1H-imidazol-4-yl)-N-(2-(4-isopropylpiperazin-1-yl)ethyl)quinolin-3-amine] | 25.1 to 158 nM | 0.0398 to 0.316 nM
20 | COC(=O)c1cnc2ccc(-c3[nH]nnc3-c3ccccc3F)nc2c1 [Compound 12-1, methyl 6-(4-(2-fluorophenyl)-1H-1,2,3-triazol-5-yl)-1,5-naphthyridine-3-carboxylate] | 200 to 1260 nM | 3.98 to 31.6 nM
21 | COC(=O)c1coc(-c2cnc3ccc(-c4c[nH]nc4-c4cc(Cl)ccc4F)nc3c2)n1 [Compound 1-104, methyl 2-[6-[3-(5-chloro-2-fluoro-phenyl)-1H-pyrazol-4-yl]-1,5-naphthyridin-3-yl]oxazole-4-carboxylate] | 25.1 to 158 nM | 0.398 to 3.16 nM
22 | Fc1ccc(Cl)cc1-c1nnn(Cc2ccccc2)c1-c1ccc2ncccc2n1 [Compound 4-1, 2-(1-benzyl-4-(5-chloro-2-fluorophenyl)-1H-1,2,3-triazol-5-yl)-1,5-naphthyridine] | 200 to 1260 nM | 0.398 to 3.16 nM
23 | CC(C)NC1CC=C(c2cnc3ccc(-c4c[nH]nc4-c4ccc(F)c(F)c4)nc3c2)CC1 (stereo not drawn) [Compound 8-24, 4-(6-(3-(3,4-difluorophenyl)-1H-pyrazol-4-yl)-1,5-naphthyridin-3-yl)-N-isopropylcyclohex-3-en-1-amine] | ≤ 20 nM | ≤ 0.0316 nM
24 | NC1CN(c2cnc3ccc(-c4c[nH]nc4-c4cc(Cl)c(F)cc4F)nc3c2)C1 [Compound 6-30, 1-[6-[3-(5-chloro-2,4-difluoro-phenyl)-1H-pyrazol-4-yl]-1,5-naphthyridin-3-yl]azetidin-3-amine] | 25.1 to 158 nM | 0.0398 to 0.316 nM
25 | CC1(C)CCCN1CCNc1cnc2ccc(-c3c[nH]nc3-c3ccc(F)c(F)c3)nc2c1 [Compound 8-2, 6-[3-(3,4-difluorophenyl)-1H-pyrazol-4-yl]-N-[2-(2,2-dimethylpyrrolidin-1-yl)ethyl]-1,5-naphthyridin-3-amine] | 25.1 to 158 nM | 3.98 to 31.6 nM
26 | Cc1nn2c(c1-c1cnc3ccc(-c4c[nH]nc4-c4cc(Cl)ccc4F)nc3c1)NCCC2 [Compound 1-120, 2-[3-(5-chloro-2-fluoro-phenyl)-1H-pyrazol-4-yl]-7-(2-methyl-4,5,6,7-tetrahydropyrazolo[1,5-a]pyrimidin-3-yl)-1,5-naphthyridine] | 25.1 to 158 nM | 0.398 to 3.16 nM
27 | Fc1ccc(-c2n[nH]cc2-c2ccc3ncc(N4CCNCC4)cc3n2)cc1F [Compound 8-4, 2-[3-(3,4-difluorophenyl)-1H-pyrazol-4-yl]-7-piperazin-1-yl-1,5-naphthyridine] | 25.1 to 158 nM | 3.98 to 31.6 nM
